Consider one compound from article PMC4923153, “Protection of Primary Dopaminergic Midbrain Neurons by GPR139 Agonists Supports Different Mechanisms of MPP^+ and Rotenone Toxicity” (Frontiers in Cellular Neuroscience, 2016).

This assay deals with T1, human GPR139 receptor (Homo sapiens, UniProt Q6DWJ6).
T1 construct: expressed in transfected cells; host or cells: CHO-K1
T1 sequence (Q6DWJ6 1-353): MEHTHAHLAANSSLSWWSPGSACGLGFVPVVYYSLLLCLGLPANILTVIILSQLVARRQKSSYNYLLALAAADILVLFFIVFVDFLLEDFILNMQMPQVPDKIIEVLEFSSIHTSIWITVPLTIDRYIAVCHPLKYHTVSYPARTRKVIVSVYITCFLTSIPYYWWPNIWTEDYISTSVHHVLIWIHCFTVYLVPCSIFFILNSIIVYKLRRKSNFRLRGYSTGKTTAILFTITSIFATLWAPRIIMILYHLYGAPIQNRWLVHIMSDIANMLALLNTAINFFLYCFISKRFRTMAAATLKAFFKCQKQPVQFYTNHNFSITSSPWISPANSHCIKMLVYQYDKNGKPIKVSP
Put plainly: GPR139 calcium mobilization assay (CHO-K1 cells stably expressing the receptor). In kind it is cell-based. Conditions: Ca2+ mobilization, determined as described (Shi et al., 2011); read-out: EC50 (GPR139 agonist). As to the method: EC50 and IC50 for all compounds were determined as described (Shi et al., [2011]).
All compounds were further characterized using GPR139-based Ca^2+ mobilization assays (Figure 5).
Figure 5 Additional characterization of GPR139 compounds using kinetic fluorescence measurements and concentration-response determination in calcium mobilization assays. (A–D) Examples for the kinetic of relative fluorescence units (RFU) for compound 1 and 4 and related controls, involving a two-step addition protocol. (A) Cellular fluorescence response to addition of buffer (approximately at time 0:00 min) and a second addition of buffer at 3:20 min. (B) Cellular fluorescence response to addition of the Ca^2+ ionophore and reference compound for complete release of Ca^2+ from intracellular stores, ionomycin. (C) Cellular response to addition of 10 μM compound 1 at time 0:00. (D) Cellular fluorescence in response to antagonist compound 4 (at 0:00, 50 μM) and addition of agonist compound 1 at EC85 concentration. […]
Standard molecular cloning techniques were used to generate Chinese hamster ovary (CHO-K1) cells stably expressing the human GPR139 receptor. […] Calcium flux was measured using a Hamamatsu FDSS7000 imaging-based plate reader (Hamamatsu Photonics) using 480 nm excitation light and emitted fluorescent light passed through a 525 nm emission filter and detected by a CCD camera. […]
Background: A change in cytosolic calcium serves as a functional read-out for many receptors and channels.

Take `CN(C)C1CCN(C(=O)CNC(=O)Cc2cccc3ccccc23)C1` (stereo not shown) [compound 2, N-[2-(3-Dimethylamino-pyrrolidin-1-yl)-2-oxo-ethyl]-2-Naphthalen-1-yl-acetamide]: the half-maximal effective concentration (EC50) worked out at 530 nM.

In general, EC50 refers to the midpoint of the concentration-response curve.
